Consider 16 molecules from ChEMBL document CHEMBL4387740, “Discovery of ABT-957: 1-Benzyl-5-oxopyrrolidine-2-carboxamides as selective calpain inhibitors with enhanced metabolic stability” (Bioorg Med Chem Lett, 2019).

The species named for series [1] is Homo sapiens. Nature of the series: Selectivity ratio, ratio of Ki for CatL (unknown origin) to Ki for Cal1 (unknown origin).
Series [2] can be described thus: Intrinsic clearance in human liver microsomes. It is filed as ADME, Microsome. Conditions: read-out: CLH. (Microsomes from liver hold many membrane-bound enzymes, among them those of drug oxidation.)
Series [3] in a line: Intrinsic clearance in human liver cytosol. The class given is ADME, subcellular. As to conditions: read-out: CLH.
Series [4] is filed under the species Homo sapiens. Put plainly: Selectivity ratio, ratio of Ki for CatK (unknown origin) to Ki for Cal1 (unknown origin).
For series [5], the species on record is Homo sapiens. Nature of the series: Selectivity ratio, ratio of Ki for CatB (unknown origin) to Ki for Cal1 (unknown origin).
Series [6] is described as follows: Selectivity ratio, ratio of Ki for CatS (unknown origin) to Ki for Cal1 (unknown origin). As to conditions: Homo sapiens.
A short description of series [7]: Intrinsic clearance in rat liver microsomes. As to conditions: read-out: CLH.
The target of series [8] is T1, Calpain-1 catalytic subunit (Homo sapiens, UniProt P07384).
T1 sequence (P07384 whole entry): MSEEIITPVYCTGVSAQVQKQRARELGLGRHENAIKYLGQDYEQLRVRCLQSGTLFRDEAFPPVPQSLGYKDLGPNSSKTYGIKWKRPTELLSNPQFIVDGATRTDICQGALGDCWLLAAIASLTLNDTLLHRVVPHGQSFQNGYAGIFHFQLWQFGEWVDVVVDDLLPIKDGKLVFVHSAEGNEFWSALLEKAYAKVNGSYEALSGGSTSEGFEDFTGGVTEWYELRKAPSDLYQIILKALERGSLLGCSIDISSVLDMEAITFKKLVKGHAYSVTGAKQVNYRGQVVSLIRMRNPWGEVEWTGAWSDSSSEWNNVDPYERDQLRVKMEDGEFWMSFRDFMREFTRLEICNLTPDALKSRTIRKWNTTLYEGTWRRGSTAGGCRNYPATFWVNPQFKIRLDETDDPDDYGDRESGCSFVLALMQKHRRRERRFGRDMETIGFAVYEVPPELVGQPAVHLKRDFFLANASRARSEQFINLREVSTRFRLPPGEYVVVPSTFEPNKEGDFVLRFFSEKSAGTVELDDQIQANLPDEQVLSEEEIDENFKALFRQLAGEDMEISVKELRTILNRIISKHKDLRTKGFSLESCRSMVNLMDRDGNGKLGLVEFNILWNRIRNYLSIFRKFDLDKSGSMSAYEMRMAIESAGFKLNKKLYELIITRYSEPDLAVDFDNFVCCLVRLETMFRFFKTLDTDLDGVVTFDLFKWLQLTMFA
Put plainly: Inhibition of Cal1 (unknown origin).

The nature of series [9]: Intrinsic clearance in rat liver microsomes. The class given is ADME, Microsome. As to conditions: read-out: CLH.

As a reminder, the Ki is the dissociation constant of the complex between target and ligand, obtained from inhibition or displacement. A lower Ki goes with higher affinity. For `O=C(NC1CC1)C(=O)C(Cc1ccccc1)NC(=O)[C@H]1CCC(=O)N1Cc1ccccc1C(F)(F)F` (some centres not stated), the Selectivity ratio in the series listed under Homo sapiens [1] is 162; in the series filed under Homo sapiens [4], 109; in the series filed under Homo sapiens [5], 33; in series [6], greater than 100. For the same molecule, the microsomal CLint in series [2] was greater than 1 µL/min/mg; in series [3], greater than 70 µL/min/mg; in [7], greater than 100 µL/min/mg. Moreover, the Ki in series [8] turned out to be 90 nM.

For `O=C1CC[C@H](C(=O)NC(Cc2ccccc2)C(=O)C(=O)NC2CC2)N1` (some centres not stated), the figures for the microsomal CLint in series [2], in series [3] and in series [7] were less than 1 µL/min/mg, less than 23 µL/min/mg and less than 23 µL/min/mg, respectively. In [8], this molecule displayed a Ki of 9700 nM.

In the case of `O=C(NC1CC1)C(=O)C(Cc1ccccc1)NC(=O)[C@H]1CCC(=O)N1Cc1ccccc1Cl` (some centres not stated), the Selectivity ratio was 57 in the series listed under Homo sapiens [1], 93 in the series listed under Homo sapiens [4], 18 in the series filed under Homo sapiens [5] and greater than 130 in [6]. The results for the microsomal CLint in [2], in series [3] and in series [7] were less than 1 µL/min/mg, greater than 70 µL/min/mg and greater than 100 µL/min/mg, respectively. This molecule also registered a Ki in [8] of 73 nM.

Consider `O=C(NC1CCC1)C(=O)C(Cc1ccccc1)NC(=O)[C@H]1CCC(=O)N1Cc1ccccc1` (some centres not stated), for which the Selectivity ratio in the series filed under Homo sapiens [1] was found to be 20; in the series filed under Homo sapiens [4] it was 27; in the series listed under Homo sapiens [5], 66; in series [6] it was 130. The microsomal CLint in series [2] is 37 µL/min/mg; in series [9], greater than 100 µL/min/mg; in series [3] it was 1 µL/min/mg. Further, in [8], the affinity corresponds to a Ki of 110 nM.

As to `O=C(Nc1ccccc1)C(=O)C(Cc1ccccc1)NC(=O)[C@H]1CCC(=O)N1Cc1ccccc1` (some centres not stated), the Selectivity ratio in the series filed under Homo sapiens [1] is 37; in the series filed under Homo sapiens [4], 88; in the series listed under Homo sapiens [5], 296; in series [6], greater than 400. Also, the microsomal CLint in [2] was greater than 70 µL/min/mg; in [9], greater than 100 µL/min/mg; in series [3], 5 µL/min/mg. In [8], this molecule returned an inhibition constant Ki of 70 nM.

On to `CCNC(=O)C(=O)C(Cc1ccccc1)NC(=O)[C@H]1CCC(=O)N1Cc1ccccc1` (mixture of isomers), for which the Selectivity ratio came to 44 in the series filed under Homo sapiens [1], 85 in the series listed under Homo sapiens [4], 55 in the series listed under Homo sapiens [5] and 60 in series [6]. Further, the results for the microsomal CLint in [2], in series [9] and in [3] were less than 23 µL/min/mg, less than 23 µL/min/mg and 4 µL/min/mg, respectively. Affinity in [8] was put at a Ki of 165 nM.

For the molecule `NC(=O)C(=O)C(Cc1ccccc1)NC(=O)[C@H]1CCC(=O)N1c1ccccc1` (mixture of isomers), the Selectivity ratio in the series listed under Homo sapiens [1] came out at 7; in the series filed under Homo sapiens [4], 6; in the series filed under Homo sapiens [5] it was 28; in series [6], 11. The same molecule came in with a Ki in series [8] greater than 1350 nM.

As to `O=C(NC1CC1)C(=O)C(Cc1ccccc1)NC(=O)[C@H]1CCC(=O)N1C1Cc2ccccc2C1` (some centres not stated), the microsomal CLint turned out to be 2 µL/min/mg in series [2], 42 µL/min/mg in series [3] and 58 µL/min/mg in series [7]. This molecule displayed a Ki in [8] of 545 nM.

Regarding `NC(=O)C(=O)C(Cc1ccccc1)NC(=O)[C@H]1CCC(=O)N1Cc1ccncc1` (mixture of isomers), the Selectivity ratio turned out to be 9 in the series filed under Homo sapiens [1], 13 in the series listed under Homo sapiens [4], 16 in the series filed under Homo sapiens [5] and 35 in series [6]. This molecule also yielded a Ki in [8] of 180 nM.

Turning to `CN1C[C@H](C(=O)NC(Cc2ccccc2)C(=O)C(N)=O)N(Cc2ccccc2)C1=O` (mixture of isomers), the Selectivity ratio in the series listed under Homo sapiens [1] turned out to be 3; in the series listed under Homo sapiens [4], 4; in the series filed under Homo sapiens [5] it was 72; in [6], 2. In series [8], this molecule had a Ki of 101 nM.

On to `NC(=O)C(=O)C(Cc1ccccc1)NC(=O)[C@H]1CCCC(=O)N1Cc1ccccc1` (mixture of isomers), for which the Selectivity ratio turned out to be 21 in the series listed under Homo sapiens [1], 4 in the series filed under Homo sapiens [4], 14 in the series filed under Homo sapiens [5] and 56 in [6]. The same molecule yielded a Ki in series [8] of 64 nM.

For the molecule `NC(=O)C(=O)C(Cc1ccccc1)NC(=O)[C@H]1CCC(=O)N1Cc1cccc(OC(F)(F)F)c1` (mixture of isomers), the Selectivity ratio turned out to be 4 in the series filed under Homo sapiens [1], 61 in the series filed under Homo sapiens [4], 7 in the series filed under Homo sapiens [5] and 76 in [6]. The same molecule showed a Ki in series [8] of 125 nM.

As for `Cn1cc(CN2C(=O)CC[C@@H]2C(=O)NC(Cc2ccccc2)C(=O)C(=O)NC2CN2)cn1` (some centres not stated), the microsomal CLint came to 27 µL/min/mg in [3] and 39 µL/min/mg in series [7]. In series [8], this molecule showed a Ki of 530 nM.

For the molecule `O=C(NCc1ccc(F)cc1)C(=O)C(Cc1ccccc1)NC(=O)[C@H]1CCC(=O)N1Cc1ccccc1` (some centres not stated), the Selectivity ratio turned out to be 34 in the series filed under Homo sapiens [1], 70 in the series filed under Homo sapiens [4], 104 in the series listed under Homo sapiens [5] and 286 in [6]. Moreover, the microsomal CLint in [2] is greater than 70 µL/min/mg; in [9], greater than 100 µL/min/mg; in series [3] it was 3 µL/min/mg. The molecule also showed a Ki in series [8] of 48 nM.

With `O=C(NC1CC1)C(=O)C(Cc1ccccc1)NC(=O)[C@H]1CCC(=O)N1Cc1ccccc1OC(F)(F)F` (some centres not stated), the Selectivity ratio in the series listed under Homo sapiens [1] was 17; in the series filed under Homo sapiens [4], greater than 200; in the series filed under Homo sapiens [5], 22; in [6], greater than 200. The results for the microsomal CLint in series [2], in series [3] and in series [7] were less than 1 µL/min/mg, greater than 70 µL/min/mg and greater than 100 µL/min/mg, respectively. Further, in series [8], affinity was put at a Ki of 50 nM.

In the case of `Cc1ccc(S(=O)(=O)N2CCC[C@@H]2C(=O)NC(Cc2ccccc2)C(=O)C(N)=O)cc1` (mixture of isomers), the Selectivity ratio in the series filed under Homo sapiens [1] was determined as 4; in the series listed under Homo sapiens [4], 14; in the series filed under Homo sapiens [5] it was 72; in series [6], 14. This molecule also gave a Ki in series [8] of 129 nM.
